Results: patent US6555091B1, “Polypeptide capable of reacting with antibodies of patients suffering from multiple sclerosis and uses” (Bio Merieux, priority 1997, dated 2003)
No end group written: not given here.

Columns and labels:
Type in all cases: binding, human
[1] = system: IgG of CSF from patients suffering from MS; experiment: ELISA of polypeptides, IgG response of CSFs diluted 1/10 (Table 5, FIGS. 7A and 7B); design: key to IgG recognition by CSF: positive (+) if the OD value at 492 nm for a 1/10 dilution of the CSF is greater than the mean values obtained for the CSFs from the ND patients+3 times the standard deviation; conditions: for number of positive (+) CSFs: total line, 15 MS patients, CSF 1/10
Text: FIGS. 7A and 7B represents the IgG response of the polypeptides whose peptide sequence consists of, respectively, SEQ ID NO: 13, SEQ ID NO: 12, SEQ ID NO: 14, SEQ ID NO: 16, SEQ ID NO: 19 and SEQ ID NO: 15, with respect to CSFs diluted 1/10; the results assembled in the appended Table 5 are expressed by the difference in the optical density values obtained for the polypeptide tested and the values obtained for the HIV polypeptide used as control; ND corresponds to patients suffering from a neurological disease other than MS, and MS* corresponds to patients suffering from MS.
Table 5, illustrated in FIGS. 7A and 7B, collates the results on the specific recognition of CSF from patients suffering from MS for 6 polypeptides of the invention, SEQ ID NO: 13, SEQ ID NO: 12, SEQ ID NO: 14, SEQ ID NO: 16, SEQ ID NO: 19 and SEQ ID NO: 15.
For each polypeptide tested, identified in Table 5 by its peptide sequence, the CSFs from patients 1-22 suffering from Ms are determined as positive (+) if the OD value at 492 nm for a 1/10 dilution of the CSF is greater than the mean values obtained for the CSFs from the ND patients+3 times the standard deviation.

[2] = system: IgM of cerebrospinal fluids from patients suffering from MS; experiment: ELISA of pentadecapeptide phage clones, IgM response of CSFs (FIG. 6); conditions: CSF 4 and CSF 7 (MS), CSF 12 (other neurological disease), CSFs diluted 1/10
Text: FIG. 6 represents the IgM response of the CSFs with respect to phages expressing the sequences SEQ ID NO: 14 (EPM), SEQ ID NO: 13 (FCP), SEQ ID NO: 16 (SRG), SEQ ID NO: 17 (QSP) , with respect to the wild-type phage (without an expressed sequence) and another nonspecific sequence (RTG); this representation is given by a histogram grouping together the results expressed as optical density values obtained for each CSF reduced by those obtained with PBS buffer controls in place of the phages; the immunoreactivity of the phage clones is tested in ELISA as described in Example 2, with respect to CSFs diluted 1/10; CSF 12 corresponds to a patient suffering from a neurological disease other than MS; CSF 4 and CSF 7 correspond to two patients suffering from MS.
In a first instance, 100 μl of anti-M13 phage antibodies diluted 1/500 in 0.1M NaHCO3, pH 8.6 (marketed by Prinn, Inc. Boulder, Colo. 80303) are bound overnight in the wells of Nunc maxisorb (trade name) microtiter plates. […] The optical density is measured on a BioMérieux plate reader at 492 nm. The IgM response is determined by addition of 100 μl of biotinylated anti-IgM conjugate diluted 1/4000 (Biomérieux monoclonal antibody) followed by the addition, after the washes, of the streptavidin-peroxidase conjugate diluted 1/10,000. […]

[3] = system: IgG of pool of positive sera (MS remission sera); experiment: ELISA of pentadecapeptide phage clones, pool of positive sera versus pool of negative sera; conditions: phage clones carrying the sequence; 1/200 serum dilution; pool of positive sera compared with pool of negative sera
Method: In a first instance, 100 μl of anti-M13 phage antibodies diluted 1/500 in 0.1M NaHCO3, pH 8.6 (marketed by Prinn, Inc. Boulder, Colo. 80303) are bound overnight in the wells of Nunc maxisorb (trade name) microtiter plates. After three washes with TBS/0.05% Tween, the plates are passivated for 1 hour at 37° C. with 250 μl of TBS containing 10% goat serum and again washed three times with the same buffer. 100 μl of various purified phage clones are then incubated for 2 hours at 37° C. in the wells. […] After four washes in TBS/0.05% Tween, 100 μl of peroxidase-labeled anti-human IgG conjugate diluted 1/10,000 (marketed by Jackson Immuno Research Laboratories Inc.) are added before an incubation for one hour at 37° C. […] The staining reaction is interrupted by the addition of 50 μl of 1.8N sulfuric acid. The optical density is measured on a BioMérieux plate reader at 492 nm. The IgM response is determined by addition of 100 μl of biotinylated anti-IgM conjugate diluted 1/4000 (Biomérieux monoclonal antibody) followed by the addition, after the washes, of the streptavidin-peroxidase conjugate diluted 1/10,000.
A library of pentadecapeptides carried on 300 copies of the phage protein VIII was constructed on the same principle as the hexapeptide library using the vector f88-4 according to the work by Greewood et al. (J. Biol. Mol. 1991). […]

| Sequence | number of positive (+) CSFs [1] | recognition of the phage clone by CSFs [2] | IgG recognition by CSF ([1]; CSF of MS patient 1, 1/10) | IgG recognition by CSF ([1]; CSF of MS patient 2, 1/10) | IgG recognition by CSF ([1]; CSF of MS patient 3, 1/10) | IgG recognition by CSF ([1]; CSF of MS patient 5, 1/10) | IgG recognition by CSF ([1]; CSF of MS patient 7, 1/10) | IgG recognition by CSF ([1]; CSF of MS patient 10, 1/10) | IgG recognition by CSF ([1]; CSF of MS patient 18, 1/10) | IgG recognition by CSF ([1]; CSF of MS patient 21, 1/10) | IgG recognition by CSF ([1]; CSF of MS patient 8, 1/10) | IgG recognition by CSF ([1]; CSF of MS patient 20, 1/10) | IgG recognition by CSF ([1]; CSF of MS patient 6, 1/10) | IgG recognition by CSF ([1]; CSF of MS patient 16, 1/10) | average positive IgG response [3] | IgG recognition by CSF ([1]; CSF of MS patient 22, 1/10) |
| --- | --- | --- | --- | --- | --- | --- | --- | --- | --- | --- | --- | --- | --- | --- | --- | --- |
| DTPYPWGWLLDEGYD (MSRV) [SEQ ID NO: 15] | 0+ |  |  |  |  |  |  |  |  |  |  |  |  |  |  |  |
| EPMTPHQWITLYRSY (MSRV) [SEQ ID NO: 14] | 8+ | recognized only by CSF 7 | + | + | + | + | + | + | + | + |  |  |  |  |  |  |
| FCPPILPYSAWCPVP (MSRV) [SEQ ID NO: 13] | 10+ | recognized specifically by CSFs 7 and 4 | + | + | + | + | + | + | + | + | + | + |  |  |  |  |
| MPVSRLCIELDWCPP (MSRV) [SEQ ID NO: 12] | 10+ |  | + | + |  | + | + | + | + | + | + |  | + | + |  |  |
| NACYVDLFLGASVCP (cysteine pairing not given here) [SEQ ID NO: 10, pentadecapeptide carried by phage clones] |  |  |  |  |  |  |  |  |  |  |  |  |  |  | 0.069 |  |
| RGTQEWTELWVSFRA (MSRV) [SEQ ID NO: 19] | 8+ |  |  |  |  | + | + | + | + | + | + |  | + |  |  | + |
| SRGSHEWAVLFRFYY (MSRV) [SEQ ID NO: 16] | 11+ |  | + | + | + | + | + | + | + | + | + |  | + |  |  | + |
| SSAKSHCYAFCSGLP (cysteine pairing not given here) [SEQ ID NO: 11, pentadecapeptide carried by phage clones] |  |  |  |  |  |  |  |  |  |  |  |  |  |  | 0.248 |  |
